These results are taken from PMC5225454, “A Comprehensive Evaluation of the Activity and Selectivity Profile of Ligands for RGD-binding Integrins” (Scientific Reports, 2017).

One data set deals with α5β1 integrin (Homo sapiens, UniProt P05556+P08648). The data set can be described thus: Solid phase binding assay with surface-coated integrin and soluble fibronectin. Conditions: incubation with fibronectin, unpublished data. On the procedure: Tests carried out in cell-free systems, use isolated extracellular domains of integrins in conjunction with ECM proteins, either extracted from human tissue or produced by recombinant methods. Most of these tests are based on competitive solid phase binding assays, in which one component is bound to the multi-well plate and in a subsequent step, soluble ligands are added, testing their capacity to block the binding to that component. Mainly two procedures are described in the literature, differing in the molecule used to coat the surfaces: the isolated integrin extracellular domains or the ECM protein. In the first case, the integrin is coated on the surface, followed by an incubation with a mixture of the native ECM protein and increasing concentrations of the ligand of interest. In an alternative test system, the natural ECM protein (vitronectin for αvβ3 and αvβ5, LAP (TGFβ) for αvβ6 and αvβ8, fibronectin for α5β1 and fibrinogen for αIIbβ3) is immobilized onto the surface, and the soluble integrin, together with a serial dilution of the inhibitory ligand, is added afterwards. The read-out in both procedures is usually done in an ELISA-like manner by using conjugated antibodies recognizing the integrin head groups. […] For a detailed description of the reference to the SI. […]

The conditions of data set [1]: cited from earlier work.

Chain of α5β1 integrin (P08648 42-995 limits assumed): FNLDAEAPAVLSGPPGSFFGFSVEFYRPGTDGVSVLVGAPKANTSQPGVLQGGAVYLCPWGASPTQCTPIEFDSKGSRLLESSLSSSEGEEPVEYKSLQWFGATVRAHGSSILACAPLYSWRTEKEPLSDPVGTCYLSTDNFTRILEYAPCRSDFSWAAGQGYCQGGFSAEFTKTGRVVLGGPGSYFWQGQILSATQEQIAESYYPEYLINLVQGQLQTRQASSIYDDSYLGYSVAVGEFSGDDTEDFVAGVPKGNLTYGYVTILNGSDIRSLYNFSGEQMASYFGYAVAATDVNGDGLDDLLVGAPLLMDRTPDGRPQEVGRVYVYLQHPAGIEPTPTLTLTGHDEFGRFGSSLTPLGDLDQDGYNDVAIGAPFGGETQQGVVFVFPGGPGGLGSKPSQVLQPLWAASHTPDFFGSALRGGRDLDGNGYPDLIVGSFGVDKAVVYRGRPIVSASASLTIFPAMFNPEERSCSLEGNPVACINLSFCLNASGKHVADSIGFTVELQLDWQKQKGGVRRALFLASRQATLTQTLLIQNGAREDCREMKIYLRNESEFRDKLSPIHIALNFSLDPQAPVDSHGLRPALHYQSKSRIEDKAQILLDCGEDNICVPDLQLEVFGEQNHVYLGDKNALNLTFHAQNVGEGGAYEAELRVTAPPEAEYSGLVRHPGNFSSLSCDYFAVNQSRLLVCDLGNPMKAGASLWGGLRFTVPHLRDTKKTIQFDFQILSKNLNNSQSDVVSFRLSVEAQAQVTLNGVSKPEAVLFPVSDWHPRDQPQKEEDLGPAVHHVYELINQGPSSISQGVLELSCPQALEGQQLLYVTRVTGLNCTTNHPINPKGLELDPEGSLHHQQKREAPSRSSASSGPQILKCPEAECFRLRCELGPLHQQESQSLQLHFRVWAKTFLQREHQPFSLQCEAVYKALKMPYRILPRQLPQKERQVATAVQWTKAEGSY
Chain of α5β1 integrin (P05556 21-728 limits assumed): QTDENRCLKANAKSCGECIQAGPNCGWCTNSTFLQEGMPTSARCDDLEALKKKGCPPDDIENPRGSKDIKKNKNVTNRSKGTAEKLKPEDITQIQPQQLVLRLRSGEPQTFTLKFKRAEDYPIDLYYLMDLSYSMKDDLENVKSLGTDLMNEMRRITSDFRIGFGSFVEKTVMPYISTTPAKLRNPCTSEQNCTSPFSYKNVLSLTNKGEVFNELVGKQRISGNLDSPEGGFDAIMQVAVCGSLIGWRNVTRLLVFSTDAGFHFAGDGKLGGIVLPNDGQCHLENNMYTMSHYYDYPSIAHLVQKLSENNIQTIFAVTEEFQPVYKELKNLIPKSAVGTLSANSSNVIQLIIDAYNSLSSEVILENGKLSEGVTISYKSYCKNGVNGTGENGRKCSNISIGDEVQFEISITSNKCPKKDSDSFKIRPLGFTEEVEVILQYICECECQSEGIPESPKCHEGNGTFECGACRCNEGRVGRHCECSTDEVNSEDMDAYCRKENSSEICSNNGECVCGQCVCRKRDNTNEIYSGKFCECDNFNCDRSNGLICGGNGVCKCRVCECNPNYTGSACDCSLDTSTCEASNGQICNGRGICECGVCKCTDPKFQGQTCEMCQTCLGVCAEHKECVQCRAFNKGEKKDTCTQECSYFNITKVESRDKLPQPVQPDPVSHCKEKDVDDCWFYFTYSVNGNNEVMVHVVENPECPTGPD

Consider `CC(C)[C@H]1C(=O)N[C@@H](CCCNC(=N)N)C(=O)NCC(=O)N[C@@H](CC(=O)O)C(=O)N[C@H](Cc2ccccc2)C(=O)N1C` [Cilengitide, c(RGDf(NMe)V)], for which the “antagonistic activity towards coated α5β1” value on α5β1 integrin is recorded as “low antagonistic activities”. In addition, the half-life in man entry in data set [1] is reported as “about four”. In addition, the systemic metabolism entry in data set [1] (man) was “not metabolized systemically”.
